Results: EP4603105A1, “PHARMACEUTICAL COMPOSITION CONTAINING CYCLIC COMPOUND HAVING SELECTIVE KRAS INHIBITORY EFFECT AGAINST HRAS AND NRAS” (CHUGAI SEIYAKU KABUSHIKI KAISHA, priority 2022, dated 2024)
Where a SMILES comes first, the peptide text is derived from it. Bridges are numbered along the chain shown (N, C = ends). [ ]: non-standard residue; d: D form. The star is where a group is joined. hPhe(3-Cl-4-CF3) = N[C@@H](CCc1ccc(C(F)(F)F)c(Cl)c1)C(=O)O; NPrPhe(4-CF3) = CCCN[C@@H](Cc1ccc(C(F)(F)F)cc1)C(=O)O; NMeGly(cPent) = CN[C@H](C(=O)O)C1CCCC1; NMeD = CN[C@@H](CC(=O)O)C(=O)O; NMeL = CN[C@@H](CC(C)C)C(=O)O; Morpholide = C1CN(*)CCO1; NMeA = CN[C@@H](C)C(=O)O; Piperidide = C1CCN(*)CC1; Ac5c = NC1(C(=O)O)CCCC1; Aze = O=C(O)[C@@H]1CCN1; Sar = CNCC(=O)O

Columns and labels:
[1] = biological target: GDP-bound NRAS wild-type protein (Homo sapiens, UniProt P01111); assay: Binding to NRAS by surface plasmon resonance (SPR), KD and KD ratio to KRAS
GDP-bound NRAS wild-type protein, sequence (P01111 whole entry): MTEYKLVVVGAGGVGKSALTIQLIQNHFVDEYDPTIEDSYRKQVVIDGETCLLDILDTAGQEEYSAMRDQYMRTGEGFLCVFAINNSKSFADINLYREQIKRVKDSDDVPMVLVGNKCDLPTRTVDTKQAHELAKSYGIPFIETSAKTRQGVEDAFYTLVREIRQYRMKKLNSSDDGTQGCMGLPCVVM
How it was run: (§1)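 Single-cycle kinetics on GDP-loaded biotin-Avi RAS captured to ~100–300 RU; 75 s ascending injections, 100 µL/min, 30°C. HBS pH 7.4 + 10 mM MgCl2/10 µM GDP/4% DMSO. 1:1 fit, KD.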

HRAS wild-type protein = HRAS wild-type protein (Homo sapiens, UniProt P01112); assay: Binding to HRAS by surface plasmon resonance (SPR), KD and KD ratio to KRAS
HRAS wild-type protein, sequence (P01112 whole entry): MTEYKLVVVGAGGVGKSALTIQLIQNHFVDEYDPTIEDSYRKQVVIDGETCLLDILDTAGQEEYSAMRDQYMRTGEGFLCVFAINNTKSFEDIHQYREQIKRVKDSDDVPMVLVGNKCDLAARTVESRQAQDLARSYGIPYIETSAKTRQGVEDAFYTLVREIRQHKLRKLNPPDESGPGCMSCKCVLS
How it was run: as §1

[2] = system: human lung cancer strain NCI-H441; assay type: cell-based
How it was run: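 Proliferation was scored by […] measured after the reagent was added to cultures kept at 37°C in 5% carbon dioxide.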

[3] = ratio of KD for GDP-bound NRAS wild-type protein to KD for KRAS
[4] = ratio of KD for HRAS wild-type protein to KD for KRAS
[5] = ratio of the KD value with respect to GDP-bound NRAS wild-type protein to the KD value with respect to KRAS
[6] = ratio of the KD value with respect to HRAS wild-type protein to the KD value with respect to KRAS
[7] = ratio of KD value for GDP-bound NRAS wild-type protein to KD value for KRAS (SPR)
[8] = ratio of KD value for HRAS wild-type protein to KD value for KRAS (SPR)

IC50 [2] [nM] | Compound | NRAS /KRAS [1, 3] | HRAS /KRAS (HRAS wild-type protein; [4]) | NRAS /KRAS [1, 5] | HRAS /KRAS (HRAS wild-type protein; [6]) | NRAS /KRAS [1, 7] | HRAS /KRAS (HRAS wild-type protein; [8])
134 | CC[C@H](C)[C@@H]1NC(=O)[C@H](CC(C)C)N(C)C(=O)C[C@@H](C(=O)N2CCOCC2)N(C)C(=O)[C@H](C2CCCC2)N(C)C(=O)C2(CCC2)NC(=O)[C@@H]2[C@@H](O)CCN2C(=O)[C@H](CCc2cc(F)c(C(F)(F)F)c(F)c2)NC(=O)CN(C)C(=O)[C@H](Cc2ccc(C(F)(F)F)cc2)N2CCCC[C@@H](C2=O)N(C)C(=O)CN(C)C1=O [PP0869] | B (a compound having 3 or more and less than 10 is denoted as B) | B (a compound having 3 or more and less than 10 is denoted as B) | – | – | – | –
283 | CC[C@H](C)[C@@H]1NC(=O)[C@H](CC(C)C)N(C)C(=O)C[C@@H](C(=O)N2CCOCC2)N(C)C(=O)[C@H](C2CCCC2)N(C)C(=O)C(C)(C)NC(=O)[C@@H]2CCCN2C(=O)[C@H](CCc2cc(F)c(C(F)(F)F)c(F)c2)NC(=O)CN(C)C(=O)[C@H](Cc2ccc(C(F)(F)F)cc2)N2CCCCC[C@@H](C2=O)N(C)C(=O)CN(C)C1=O [PP0503] | – | – | A (a compound having 10 or more and less than 20 is denoted as A) | B (a compound having 3 or more and less than 10 is denoted as B) | – | –
7.9 | CC[C@H](C)[C@@H]1NC(=O)[C@H](CC2CC2)N(C)C(=O)C[C@@H](C(=O)N(C)CC)N(C)C(=O)[C@H](C2CCCC2)N(C)C(=O)C2(CCC2)NC(=O)[C@@H]2C[C@H](C)CN2C(=O)[C@H](CCc2cc(F)c(C(F)(F)F)c(F)c2)NC(=O)CN(C)C(=O)[C@H](Cc2ccc(C(F)(F)F)cc2)N2CC/C=C\C[C@@H](C2=O)N(C)C(=O)CN(C)C1=O [PP1537] | – | – | – | – | AA (a compound having 20 or more is denoted as AA) | A (a compound having 10 or more and less than 20 is denoted as A)
50.8 | CC[C@H](C)[C@@H]1NC(=O)[C@H](C2CCC2)N(C)C(=O)C[C@@H](C(=O)N(C)CC)N(C)C(=O)[C@H](C2CCCC2)N(C)C(=O)C2(CC(C)(C)C2)NC(=O)[C@@H]2C[C@H](C)CN2C(=O)[C@H](CCc2cc(F)c(C(F)(F)F)c(F)c2)NC(=O)CN(C)C(=O)[C@H](Cc2ccc(C(F)(F)F)cc2)N2CC/C=C\C[C@@H](C2=O)N(C)C(=O)CN(C)C1=O [PP1984] | – | – | A (a compound having 10 or more and less than 20 is denoted as A) | A (a compound having 10 or more and less than 20 is denoted as A) | – | –
17.6 | CCCN1C(=O)C[C@@H](C(=O)N(C)C)N(C)C(=O)[C@H](C2CCCC2)N(C)C(=O)C2(CCC2)NC(=O)[C@@H]2C[C@@H](OCC)CN2C(=O)[C@H](CCc2cc(F)c(C(F)(F)F)c(F)c2)NC(=O)CN(C)C(=O)[C@H](Cc2ccc(C(F)(F)F)cc2)N2CC/C=C\C[C@@H](C2=O)N(C)C(=O)CNC(=O)[C@H]([C@@H](C)CC)NC(=O)[C@@H]1CC(C)C [PP1826] | – | – | – | – | A (a compound having 10 or more and less than 20 is denoted as A) | A (a compound having 10 or more and less than 20 is denoted as A)
2.7 | CCCN(C)C(=O)[C@@H]1CC(=O)N(C)[C@@H](CC(F)F)C(=O)N[C@@H]([C@@H](C)CC)C(=O)N(C)CC(=O)N(C)[C@H]2C/C=C\CCN(C2=O)[C@@H](Cc2ccc(C(F)(F)F)cc2)C(=O)N(C)CC(=O)N[C@@H](CCc2cc(F)c(C(F)(F)F)c(F)c2)C(=O)N2C[C@H](F)C[C@H]2C(=O)NC2(CC(C)(C)C2)C(=O)N(C)[C@@H](C2CCCC2)C(=O)N1C [PP1687] | – | – | – | – | A (a compound having 10 or more and less than 20 is denoted as A) | A (a compound having 10 or more and less than 20 is denoted as A)
16.2 | CCC[C@@H]1C[C@H]2C(=O)NC3(CCC3)C(=O)N(C)[C@@H](C3CCCC3)C(=O)N(C)[C@H](C(=O)N(C)C)CC(=O)N(C)[C@@H](CC(C)C)C(=O)N[C@@H]([C@@H](C)CC)C(=O)N(C)CC(=O)N(C)[C@H]3C/C=C\CCN(C3=O)[C@@H](Cc3ccc(C)cc3)C(=O)N(C)CC(=O)N[C@@H](CCc3cc(F)c(C(F)(F)F)c(F)c3)C(=O)N2C1 [PP2231] | – | – | A (a compound having 10 or more and less than 20 is denoted as A) | B (a compound having 3 or more and less than 10 is denoted as B) | – | –
252 | CCO[C@@H]1C[C@H]2C(=O)NC3(CCC(F)(F)CC3)C(=O)N(C)[C@@H](C3CCCC3)C(=O)N(C)[C@H](C(=O)N3CCOCC3)CC(=O)N(C)[C@@H](CC(C)C)C(=O)N[C@@H]([C@@H](C)CC)C(=O)N(C)CC(=O)N(C)[C@H]3CCCCCN(C3=O)[C@@H](Cc3ccc(C(F)(F)F)cc3)C(=O)N(C)CC(=O)N[C@@H](CCc3cc(F)c(C(F)(F)F)c(F)c3)C(=O)N2C1 [PP0728] | – | – | B (a compound having 3 or more and less than 10 is denoted as B) | B (a compound having 3 or more and less than 10 is denoted as B) | – | –
18.5 | CCO[C@@H]1C[C@H]2C(=O)NC3(CC(C)(C)C3)C(=O)N(C)[C@@H](C3CCCC3)C(=O)N(C)[C@H](C(=O)N(C)C)CC(=O)N3CCCCC[C@H]3C(=O)N[C@@H]([C@@H](C)CC)C(=O)N(C)CC(=O)N(C)[C@H]3C/C=C\CCN(C3=O)[C@@H](Cc3ccc(C(F)(F)F)cc3)C(=O)N(C)CC(=O)N[C@@H](CCc3cc(F)c(C(F)(F)F)c(F)c3)C(=O)N2C1 [PP1915] | – | – | A (a compound having 10 or more and less than 20 is denoted as A) | A (a compound having 10 or more and less than 20 is denoted as A) | – | –
7.6 | CCC[C@H]1C(=O)N[C@@H]([C@@H](C)CC)C(=O)N(C)CC(=O)N(C)[C@H]2C/C=C\CCN(C2=O)[C@@H](Cc2ccc(C)cc2)C(=O)N(C)CC(=O)N[C@@H](CCc2cc(F)c(C(F)(F)F)c(F)c2)C(=O)N2C[C@H](C)C[C@H]2C(=O)N(C)C2(CCC2)C(=O)N(C)[C@@H](C2CCCC2)C(=O)N(C)[C@H](C(=O)N(C)C)CC(=O)N1C [PP1799] | – | – | – | – | B (a compound having 3 or more and less than 10 is denoted as B) | B (a compound having 3 or more and less than 10 is denoted as B)
14.3 | CCO[C@@H]1C[C@H]2C(=O)NC3(CCC3)C(=O)N(C)[C@@H](C3CCCC3)C(=O)N(C)[C@H](C(=O)N(C)C)CC(=O)N(C)[C@@H](CC)C(=O)N[C@@H]([C@@H](C)CC)C(=O)N(C)CC(=O)N(C)[C@H]3CCCCN(C3=O)[C@@H](Cc3ccc(C(F)(F)F)cc3)C(=O)N(C)CC(=O)N[C@@H](CCc3c(F)c(F)c(C(F)(F)F)c(F)c3F)C(=O)N2C1 [PP0886] | C (A compound having a KD ratio of 0.1 or more and less than 3 is denoted as C) | B (a compound having 3 or more and less than 10 is denoted as B) | – | – | – | –
44.2 | CC[C@H](C)[C@@H]1NC(=O)[C@H](CC(C)C)N(C)C(=O)C[C@@H](C(=O)N2CCOCC2)N(C)C(=O)[C@H](C2CCCC2)N(C)C(=O)C2(CCC2)NC(=O)[C@@H]2CCCN2C(=O)[C@H](CCc2cc(F)c(C(F)(F)F)c(F)c2)NC(=O)CN(C)C(=O)[C@H](Cc2ccc(C(F)(F)F)cc2)N2CCCCC[C@@H](C2=O)N(C)C(=O)CN(C)C1=O [PP0497] | – | – | B (a compound having 3 or more and less than 10 is denoted as B) | B (a compound having 3 or more and less than 10 is denoted as B) | – | –
13 | CC[C@H](C)[C@@H]1NC(=O)[C@H](CC(C)C)N(C)C(=O)C[C@@H](C(=O)N2CCOCC2)N(C)C(=O)[C@H](C2CCCC2)N(C)C(=O)C2(CCC2)NC(=O)[C@@H]2[C@@H](OCC3CC3)CCN2C(=O)[C@H](CCc2cc(F)c(C(F)(F)F)c(F)c2)NC(=O)CN(C)C(=O)[C@H](Cc2ccc(C(F)(F)F)cc2)N2CCCC[C@@H](C2=O)N(C)C(=O)CN(C)C1=O [PP1072] | B (a compound having 3 or more and less than 10 is denoted as B) | B (a compound having 3 or more and less than 10 is denoted as B) | – | – | – | –
1.5 | CCCN1C(=O)CN(C)C(=O)CN(C)C(=O)[C@H]([C@@H](C)CC)NC(=O)[C@H](CC(C)C)N(C)C(=O)C[C@@H](C(=O)N2CCOCC2)N(C)C(=O)[C@H](C2CCCC2)N(C)C(=O)C2(CCCC2)NC(=O)[C@@H]2CCCN2C(=O)[C@H](CCc2ccc(C(F)(F)F)c(Cl)c2)NC(=O)CN(C)C(=O)[C@@H]1Cc1ccc(C(F)(F)F)cc1 [PP0060] ([NMeL]I[Sar][Sar][NPrPhe(4-CF3)][Sar][hPhe(3-Cl-4-CF3)]P[Ac5c][NMeGly(cPent)][NMeD]-Morpholide; lactam N-11) | B (a compound having 3 or more and less than 10 is denoted as B) | B (a compound having 3 or more and less than 10 is denoted as B) | – | – | – | –

Compound | IC50 [2] [nM] | NRAS /KRAS [1, 3] | HRAS /KRAS (HRAS wild-type protein; [4]) | NRAS /KRAS [1, 5] | HRAS /KRAS (HRAS wild-type protein; [6]) | NRAS /KRAS [1, 7] | HRAS /KRAS (HRAS wild-type protein; [8])
CCCN1C(=O)[C@@H]2CCN2C(=O)[C@H](C)N(C)C(=O)[C@H]([C@@H](C)CC)NC(=O)[C@H](CC(C)C)N(C)C(=O)C[C@@H](C(=O)N2CCCCC2)N(C)C(=O)[C@H](C2CCCC2)N(C)C(=O)C2(CCCC2)NC(=O)[C@@H]2CCCN2C(=O)[C@H](CCc2ccc(C(F)(F)F)c(Cl)c2)NC(=O)CN(C)C(=O)[C@@H]1Cc1ccc(C(F)(F)F)cc1 [PP0180] ([NMeL]I[NMeA][Aze][NPrPhe(4-CF3)][Sar][hPhe(3-Cl-4-CF3)]P[Ac5c][NMeGly(cPent)][NMeD]-Piperidide; lactam N-11) | 7.5 | C (A compound having a KD ratio of 0.1 or more and less than 3 is denoted as C) | C (A compound having a KD ratio of 0.1 or more and less than 3 is denoted as C) | – | – | – | –
